Data taken from article PMC10265003 (Royal Society Open Science, 2023).
Positions of bridges follow the written chain, without caps; N, C: chain ends. Non-standard residues stand in square brackets, D forms with d. Residues, ends and D or L forms follow the SMILES beside them. Chains are numbered I, II in the order given. 1Nal = N[C@@H](Cc1cccc2ccccc12)C(=O)O; Ahx = NCCCCCC(=O)O

Experiments:
[1] = test system: HEK-293 human kidney cell line; format: cell-based; settings: for IC50 HEK-293: 2 h; for selectivity index IC50 HEK-293/IC50 MCF-7 / selectivity index IC50 HEK-293/IC50 HeLa: ratio of IC50 values; for selectivity index IC50 HEK-293/IC50 HeLa: in brackets
Procedure: (§1) The MTT assay was performed in accordance with previous reports. Briefly, the cells were seeded with a complete medium in 96-well plates at a rate of 10 000 cells and 100 µl per well, and adhesion to the plates was allowed for 24 h. Later, the complete medium was removed, and an incomplete medium was added for synchronization for another 24 h. […] Next, the peptide was removed from the well and 100 µl of incomplete medium with 10% MTT was added and incubated for 4 h. The medium was replaced with 100 µl of isopropanol, and after 30 min of incubation at 37°C, the absorbance was measured at 575 nm. As a negative control, an incomplete culture medium with 10% MTT was used, and as a positive control, cells without MTT treatment were used. The IC50 value was determined from figure 1 (peptide concentration versus per cent cell viability) using a nonlinear regression model with variable slope and GraphPad Prism 9 statistical analysis software.

CD1 mice = test: Peptide toxicity in vivo model (Irwin test, survival); settings: for observed signs after ip administration (Irwin test): ip 70 mg kg^−1; for survival (%) sc: single sc dose 70 mg kg^−1, n = 3
Procedure: Experiment 1. CD1 mice male (eight weeks old, weighing 33–35 g) were housed in groups of six animals per cage for each peptide ^26[F] and ^26[1-Nal]; three mice were inoculated by intraperitoneal via ip, and three mice were inoculated by subcutaneous via sc. Mice inoculated via ip or sc with saline solution were used as control. The peptide was dissolved in saline solution (7 mg ml^−1) and the mice were inoculated only one time with 0.33–0.35 ml (dosage 70 mg kg^−1) via ip or sc. Experiment 2. CD1 mice female (n = 4, eight weeks old, weighing 33–35 g) were inoculated only one time with peptide ^26[F] (dosage 140 mg kg^−1) or ^26[1-Nal] (8.8 to 70 mg kg^−1).
To determine the toxicity of peptides ^26[F] and ^26[1-Nal] in vivo model, a preliminary study was carried out in CD1 male mice. The Irwin test was used to evaluate in qualitative manner the effect of peptide administration over motor functions, behaviour, physiology and pharmacological safety in rodents. This test is used as a first approach to study of the adverse effects generated by a pharmaceutical treatment in an in vivo model in preclinical test.

pepsin [2] = target: pepsin (Sus scrofa, UniProt P00791); settings: pH 2
Chain of pepsin (Sus scrofa, UniProt P00791) (P00791 60-385): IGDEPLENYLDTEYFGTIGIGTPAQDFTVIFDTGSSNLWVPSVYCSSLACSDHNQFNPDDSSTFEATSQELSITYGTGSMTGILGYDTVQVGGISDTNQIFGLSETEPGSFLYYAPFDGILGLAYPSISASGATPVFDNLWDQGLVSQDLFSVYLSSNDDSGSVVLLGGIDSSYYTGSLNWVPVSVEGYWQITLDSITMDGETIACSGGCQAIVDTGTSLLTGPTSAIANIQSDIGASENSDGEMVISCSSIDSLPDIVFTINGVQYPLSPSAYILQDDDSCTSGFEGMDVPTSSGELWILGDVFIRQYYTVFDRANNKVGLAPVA
Procedure: Pepsin was dissolved in 0.010 M HCl (pH 2.0). An aliquot of 50 µl was added to each peptide solution in a 1 : 100 (w/w) ratio. The peptides were dissolved in H2O-TFA 0.05% (v/v). This was incubated at 37°C for 3 h, aliquots were taken at 0 and 3 h, and the samples were heated for 5 min and then cooled at 4°C for the thermal inactivation of pepsin and characterized via HPLC and LC-MS.

trypsin = trypsin (Sus scrofa, UniProt P00761)
Chain of trypsin (P00761 9-231): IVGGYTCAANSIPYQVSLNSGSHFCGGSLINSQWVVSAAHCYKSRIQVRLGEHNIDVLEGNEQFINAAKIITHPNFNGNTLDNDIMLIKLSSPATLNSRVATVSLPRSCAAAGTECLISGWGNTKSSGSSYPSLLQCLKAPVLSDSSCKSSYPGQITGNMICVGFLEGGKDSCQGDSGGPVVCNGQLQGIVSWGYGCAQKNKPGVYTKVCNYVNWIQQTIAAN
Procedure: Trypsin (20 μg) was dissolved in 450 µl of the buffer supplied by the manufacturer, and 50 µl was added to each peptide solution, maintaining a protease : peptide ratio of 1 : 100 (w/w). The samples were incubated at 37°C for 24 h. Aliquots were taken at 0, 5, 10, 15 and 20 min, the enzymatic reaction was stopped by adding 1 M HCl, and the mixture was analysed via RP-HPLC and LC-MS. Bovine serum albumin (BSA) and bovine lactoferrin (bLF) were used as the positive control, and the negative control was the peptide in buffer solution without trypsin.

human erythrocytes = format: cell-based; settings: for IC50 erythrocytes: 2 h; for selectivity index IC50 erythrocytes/IC50 MCF-7 / selectivity index IC50 erythrocytes/IC50 HeLa: ratio of IC50 values; for selectivity index IC50 erythrocytes/IC50 HeLa: in brackets
Procedure: Haemolysis assays were performed in accordance with Cárdenas et al.. The blood was donated by healthy volunteers with blood type O^+. First, 5 ml of peripheral blood in EDTA was centrifuged at 500 r.p.m. for 15 min, and the erythrocytes were separated and washed three times with 0.9% saline solution. Then 100 µl of peptide solution (final concentrations of 200 at 6.2 µg ml^−1) was mixed with 100 µl of erythrocytes (2% haematocrit) and incubated at 37°C for 2 h. It was then centrifuged at 2500 r.p.m. for 5 min and the absorbance of the supernatant was measured at 450 nm. Two controls were used; positive control: distilled water, and negative control: saline solution 0.9%.

MCF-7 breast cancer line = format: cell-based, human; settings: 2 h
Procedure: (§2) The MTT assay was performed in accordance with previous reports. Briefly, the cells were seeded with a complete medium in 96-well plates at a rate of 10 000 cells and 100 µl per well, and adhesion to the plates was allowed for 24 h. Later, the complete medium was removed, and an incomplete medium was added for synchronization for another 24 h. The cells were then incubated at 37°C for 2 h with 100 µl of peptide at the evaluated concentrations (200, 100, 50, 25, 12.5 and 6.25 µg ml^−1). Next, the peptide was removed from the well and 100 µl of incomplete medium with 10% MTT was added and incubated for 4 h. The medium was replaced with 100 µl of isopropanol, and after 30 min of incubation at 37°C, the absorbance was measured at 575 nm. As a negative control, an incomplete culture medium with 10% MTT was used, and as a positive control, cells without MTT treatment were used. The IC50 value was determined from figure 1 (peptide concentration versus per cent cell viability) using a nonlinear regression model with variable slope and GraphPad Prism 9 statistical analysis software.

[3] = test system: human primary fibroblasts; format: cell-based; settings: for IC50 fibroblasts: 2 h; for selectivity index IC50 fibroblasts/IC50 MCF-7 / selectivity index IC50 fibroblasts/IC50 HeLa: ratio of IC50 values; for selectivity index IC50 fibroblasts/IC50 HeLa: in brackets
Description: Rink amide resin, Fmoc-Arg(Pbf)-OH, Fmoc-Trp(Boc)-OH, Fmoc-Gln(Trt)-OH, Fmoc-Phe-OH, Fmoc-Lys(Boc)-OH, Fmoc-Leu-OH, Fmoc-Gly-OH, Fmoc-6-Ahx-OH, Fmoc-Lys(Fmoc)-OH, Triton-X, piperidine, N,N-dimethylformamide (DMF), dichloromethane (DCM), dicyclohexylcarbodiimide (DCC), 1-hydroxy-6-chloro-benzotriazole (6-Cl-HOBt), ninhydrin, potassium cyanide (KCN), ethanol, pyridine, phenol, trifluoroacetic acid (TFA), ethyl ether, triisopropylsilane (TIS), ethanedithiol (EDT), acetonitrile (ACN), methanol (MeOH) and solid phase extraction columns Supelco, Trypsin-EDTA solution and pepsin 2500 units mg^−1 were purchased from Sigma-Aldrich (St Louis, MO, USA). The non-natural amino acids diphenylalanine, 1-naphthyl-phenylalanine, 4-benzoyl-phenylalanine, homophenylalanine (hF), 4-(Fmoc-amino) benzoic acid (4-Abz) and 2-(Fmoc-amino) benzoic acid (2-Abz) were obtained from AAPPTec (Louisville, KY, USA). The cell lines MCF-7, HeLa, HEK-293 were purchased from ATCC (Manassas, VA). The primary cell culture of fibroblasts was obtained from the foreskin by the Laboratory of Cellular Physiology of the National University of Colombia, and the fibroblasts were cultured and frozen. Some vials were thawed and cultured for up to seven passes, since no transformation/immortalization was done. Annexin V and Alexa Fluor 488 conjugate was purchased from Invitrogen (Eugene, Oregon). The DMEM culture medium and trypsin were obtained from Sigma-Aldrich (St Louis, MO, USA). Bovine fetal serum was purchased from Gibco (Waltham, MA, USA). Calcium assay kit and Fluorescein CaspGLOW Active Caspase-8 or Caspase-9 Staining Kit were obtained for BD Biosciences (San Diego, CA, USA) and Invitrogen Thermo Fisher Scientific (Waltham, MA, USA), respectively.
as §1

[4] = test system: HeLa human cervical cancer cell line; format: cell-based; settings: 2 h
Procedure: as §2

pepsin [5] = test: Pepsin dissolved in 0.010 M HCl (pH 2.0); peptides dissolved in H2O-TFA 0.05% (v/v); settings: 37°C, up to 3 h
[6] = experiment 1, male CD1 mice, single ip dose 70 mg kg^−1, n = 3, one week of observation

Compound	IC50 HEK-293 [1]	selectivity index IC50 HEK-293/IC50 MCF-7 [1]	selectivity index IC50 HEK-293/IC50 HeLa [1]	observed signs after ip administration (Irwin test) (CD1 mice; experiment 1, male CD1 mice)	survival (%) ip (CD1 mice; [6])	survival (%) sc (CD1 mice; experiment 1, male CD1 mice)	proteolytic degradation by pepsin (pepsin [2])	proteolytic degradation by trypsin, 10 min (trypsin)	IC50 erythrocytes (human erythrocytes)	selectivity index IC50 erythrocytes/IC50 MCF-7 (human erythrocytes)	selectivity index IC50 erythrocytes/IC50 HeLa (human erythrocytes)	IC50 (MCF-7 breast cancer line)	IC50 MCF-7 (MCF-7 breast cancer line)	IC50 fibroblasts [3]	selectivity index IC50 fibroblasts/IC50 MCF-7 [3]	selectivity index IC50 fibroblasts/IC50 HeLa [3]	IC50 HeLa [4]	not cleaved (pepsin [5])	other results
CC(C)C[C@H](NC(=O)[C@H](CCCCN)NC(=O)[C@H](CCCCN)NC(=O)[C@H](Cc1cccc2ccccc12)NC(=O)[C@H](CCCNC(=N)N)NC(=O)[C@H](Cc1c[nH]c2ccccc12)NC(=O)[C@H](CCC(N)=O)NC(=O)[C@H](Cc1c[nH]c2ccccc12)NC(=O)[C@H](CCCNC(=N)N)NC(=O)[C@@H](N)CCCNC(=N)N)C(=O)NCC(=O)NCCCC[C@H](NC(=O)CNC(=O)[C@H](CC(C)C)NC(=O)[C@H](CCCCN)NC(=O)[C@H](CCCCN)NC(=O)[C@H](Cc1cccc2ccccc12)NC(=O)[C@H](CCCNC(=N)N)NC(=O)[C@H](Cc1c[nH]c2ccccc12)NC(=O)[C@H](CCC(N)=O)NC(=O)[C@H](Cc1c[nH]c2ccccc12)NC(=O)[C@H](CCCNC(=N)N)NC(=O)[C@@H](N)CCCNC(=N)N)C(=O)NCCCCCC(N)=O [^26[1-Nal], (RRWQWR-1-Nal-KKLG)2-K-Ahx] (I: H-RRWQWR[1Nal]KKLGK[Ahx]-NH2 / II: H-RRWQWR[1Nal]KKLG; amide I:12-II:C)	86(25) µg mL^−1	1.8	1.5	motor function decreased 30 min after peptide administration and abdominal contortions were observed	33%	100%	unaffected	less degradation, with the majority being intact dimeric peptide	>200(>58) µg mL^−1	> 4.1	> 3.6	14 µM	48(14) µg mL^−1	30(9) µg mL^−1	0.6	0.5	55(16) µg mL^−1	–	survival (%) ip (CD1 mice; experiment 2, female CD1 mice, single ip dose 8.8 mg kg^−1, n = 3): 100%; survival (%) ip (CD1 mice; experiment 2, female CD1 mice, single ip dose 17.5 mg kg^−1, n = 3): 100%; survival (%) ip (CD1 mice; experiment 2, female CD1 mice, single ip dose 35.0 mg kg^−1, n = 3): 100%; survival (%) ip (CD1 mice; experiment 2, female CD1 mice, single ip dose 70.0 mg kg^−1, n = 3): 100%; proteolytic degradation by trypsin, 3 h (trypsin): three main species, with tR = 3.7, 5.4 min and unaffected peptide tR = 6.4 min
CC(C)C[C@H](NC(=O)[C@H](CCCCN)NC(=O)[C@H](CCCCN)NC(=O)[C@H](Cc1ccccc1)NC(=O)[C@H](CCCNC(=N)N)NC(=O)[C@H](Cc1c[nH]c2ccccc12)NC(=O)[C@H](CCC(N)=O)NC(=O)[C@H](Cc1c[nH]c2ccccc12)NC(=O)[C@H](CCCNC(=N)N)NC(=O)[C@@H](N)CCCNC(=N)N)C(=O)NCC(=O)NCCCC[C@H](NC(=O)CNC(=O)[C@H](CC(C)C)NC(=O)[C@H](CCCCN)NC(=O)[C@H](CCCCN)NC(=O)[C@H](Cc1ccccc1)NC(=O)[C@H](CCCNC(=N)N)NC(=O)[C@H](Cc1c[nH]c2ccccc12)NC(=O)[C@H](CCC(N)=O)NC(=O)[C@H](Cc1c[nH]c2ccccc12)NC(=O)[C@H](CCCNC(=N)N)NC(=O)[C@@H](N)CCCNC(=N)N)C(=O)NCCCCCC(N)=O [^26[F], (RRWQWR-F-KKLG)2-K-Ahx] (I: H-RRWQWRFKKLGK[Ahx]-NH2 / II: H-RRWQWRFKKLG; amide I:12-II:C)	203(59) µg mL^−1	2.6	8.4	motor function decreased 30 min after peptide administration and abdominal contortions were observed	100%	100%	degraded into two fragments	disappeared completely	>200(>58) µg mL^−1	> 2.5	> 8.3	23 µM	79(23) µg mL^−1	121(35) µg mL^−1	1.5	5.0	24(7) µg mL^−1	–	survival (%) ip (CD1 mice; experiment 2, female CD1 mice, single ip dose 140.0 mg kg^−1, n = 4): 0%; observed signs after ip administration (CD1 mice; female mice, ip 140 mg kg^−1, after 30 min of treatment): decreased motor function, abdominal contractions, excess irrigation, marked ataxia and loss of coordination; proteolytic degradation by trypsin, 5 min (trypsin): two fragments were also generated
(RRWQWR-1-Nal-KKLG)2-K-Ahx	–	–	–	–	–	–	–	–	–	–	–	–	–	–	–	–	–	pepsin treatment for 3 h did not induce proteolytic degradation	–
(RRWQWR-hF-KKLG)2-K-Ahx	–	–	–	–	–	–	–	–	–	–	–	–	–	–	–	–	–	pepsin treatment for 3 h did not induce proteolytic degradation	–
